According to patent publication US20060014723A1, “Anti-parasitic uses of borinic acid complexes” (priority 2004, published 2006):
Values after ≈ are worked out from the molar mass of the structure shown.

Tests used:
P. falciparum K1 = test: Malaria in vitro screening model (3H-hypoxanthine incorporation); assay type: cell-based, Plasmodium falciparum; details: for IC50: Plasmodium falciparum, K1
Description: […] P. falciparum K1 is used in this study. K1 (a clone originating from Thailand) is resistant to chloroquine and pyrimethamine. The strains are maintained in RPMI 1640 medium with 0.36 mM hypoxanthine, supplemented with 25 mM N 2-hydroxyethyipiperazine-N-2-ethane-sulphonic acid (HEPES), 25 mM NaHCO3, neomycin (100 U/mL) and 5 g/L of ALBUMAX® II (lipid-rich bovine serum albumin, GIBCO, Grand Island, N.Y., USA), together with 5% washed human A+ erythrocytes. All cultures and assays are conducted at 37° C. under an atmosphere of 4% CO2, 3% O2 and 93% N2. Cultures are kept in incubation chambers filled with the gas mixture. Subcultures are diluted to a parasitemia of between 0.1 and 0.5% and the medium is changed daily.
Antimalarial activity is assessed using an adaptation of the procedures described by Desjardins et al. (Antimicrob. Agents Chemother. 16:710-718, 1979), and Matile and Pink (In: Lefkovits, I. and Pernis, B. (Eds.), Immunological Methods Vol. IV, Academic Press, San Diego, pp. 221-234, 1990).
Stock drug solutions are prepared in 100% dimethylsulfoxide (DMSO) at 10 mg/mL, and heated or sonicated if necessary to dissolve the sample. After use, the stocks are kept at −20° C. For the assays, the compound is further diluted in serum-free culture medium and finally to the appropriate concentration in complete medium without hypoxanthine.
Assays are performed in sterile 96-well microtiter plates, each well containing 200 μl of parasite culture (0.15% parasitemia, 2.5% hematocrit) with or without serial drug solutions. Seven 2-fold dilutions are used, covering a range from […] to 0.078 μg/mL. For active compounds the highest concentration is lowered (e.g., to […]); for plant extracts the highest concentration is increased to 50 μg/mL. […] After 48 hours of incubation at 37° C., 0.5 μCi ^3H-hypoxanthine is added to each well. Cultures are incubated for a further 24 h before being harvested onto glass-fiber filters and washed with distilled water. The radioactivity is counted using a Betaplate liquid scintillation counter (Wallac, Zurich, Switzerland). The results are recorded as counts per minute per well at each drug concentration and expressed as percentage of the untreated controls. IC50 values are calculated from the sigmoidal inhibition curves using Microsoft EXCEL.

[1] = system: T. b. rhodesiense STIB 900; test: African sleeping sickness in vitro screening model (Alamar Blue); assay type: cell-based, Trypanosoma brucei rhodesiense; details: for IC50: Trypanosoma brucei
Method in brief: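 Bloodstream-form trypomastigotes, 8×10^3/well, were grown in supplemented MEM with 15% horse serum, without hypoxanthine, at 37 °C in 5% CO2. They were exposed for 72 h to seven 3-fold dilutions from 90 to 0.123 μg/mL. Resazurin (Alamar Blue) was added for 2 h, fluorescence read at ex 536/em 588 nm, and IC50 taken as the mean of four values.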

[2] = system: Trypanosoma cruzi Tulahuen C2C4 strain; test: Chagas disease in vitro screening model (beta-galactosidase strain in L-6 cells); assay type: cell-based; details: for IC50: Trypanosoma cruzi, TULAHUEN, L6, read-out: T. cruzi IC50
Method in brief: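 L-6 rat myoblasts in RPMI 1640/10% FBS at 37 °C were infected with 5×10^3 lacZ-expressing T. cruzi Tulahuen C2C4 trypomastigotes. CPRG/Nonidet substrate was read at 540 nm, and IC50 came from sigmoidal curves.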

[3] = system: Leishmania donovani strain MHOM/ET1671L82; test: Leishmaniasis in vitro screening model (axenic amastigotes, Alamar Blue); assay type: cell-based; details: for IC50: Leishmania donovani, read-out: L. donovani IC50
Method in brief: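 Axenic L. donovani amastigotes (10^5 per well) from hamster spleen, grown at 37° C in SM medium pH 5.4 with 10% FBS, 5% CO2, exposed to serial 3-fold compound dilutions (30 to 0.041 μg/mL) for 72 h. Alamar Blue added for 2 h, fluorescence read (ex 536/em 588 nm); IC50 from sigmoidal curve versus control cultures.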

## Cc1cc(B(Oc2cccc3cccnc23)c2cccc(C#N)c2)ccc1Cl [Compound 31, (4-Chloro-3-methylphenyl)(3-cyanophenyl)borinic acid quinolin-8-yl ester]
P. falciparum K1
  IC50: 1.83 µg/mL (≈ 4.78 µM)
[1]
  IC50: 0.28 µg/mL (≈ 0.732 µM)
[2]
  IC50: 0.79 µg/mL (≈ 2.06 µM)
[3]
  IC50: 0.83 µg/mL (≈ 2.17 µM)

## C=CB(Oc1cccc2cccnc12)c1cccc(C2=NC(C)(C)CO2)c1 [Compound 93]
P. falciparum K1
  P. falciparum IC50: 3.034 µg/mL
[1]
  T. b. rhodesiense IC50: 0.32 µg/mL
[2]
  T. cruzi IC50: 3.65 µg/mL
[3]
  L. donovani IC50: 0.55 µg/mL

## N#Cc1ccc(B(Oc2cccc3cccnc23)c2ccc(F)cc2F)cc1 [Compound 98]
P. falciparum K1
  P. falciparum IC50: 3.245 µg/mL
[1]
  T. b. rhodesiense IC50: 0.345 µg/mL
[2]
  T. cruzi IC50: 4.05 µg/mL
[3]
  L. donovani IC50: 0.59 µg/mL

## Cc1cc(B(Oc2cccc3cccnc23)c2ccc(C#N)cc2)ccc1Cl [Compound 34, (4-Chloro-3-methylphenyl)(4-cyanophenyl)borinic acid quinolin-8-yl ester]
P. falciparum K1
  IC50: 1.39 µg/mL (≈ 3.63 µM)
[1]
  IC50: 0.23 µg/mL (≈ 0.601 µM)
[2]
  IC50: 0.82 µg/mL (≈ 2.14 µM)
[3]
  IC50: 0.07 µg/mL (≈ 0.183 µM)

## O=C(OB(c1ccc(Cl)cc1)c1ccc(Cl)cc1)c1ncccc1OCCN1CCOCC1 [Compound 76]
P. falciparum K1
  P. falciparum IC50: 3.81 µg/mL
[1]
  T. b. rhodesiense IC50: 19.8 µg/mL
[2]
  T. cruzi IC50: 4.05 µg/mL
[3]
  L. donovani IC50: 2 µg/mL

## COC(=O)c1cccnc1C(=O)OB(c1ccc(C)c(Cl)c1)c1ccc(C)c(Cl)c1 [Compound 73]
P. falciparum K1
  P. falciparum IC50: 2.997 µg/mL
[1]
  T. b. rhodesiense IC50: 21.3 µg/mL
[2]
  T. cruzi IC50: 7.2 µg/mL
[3]
  L. donovani IC50: 0.63 µg/mL

## N#Cc1ccc(B(Oc2cccc3cccnc23)c2cc(F)cc(C(F)(F)F)c2)cc1 [Compound 122]
P. falciparum K1
  P. falciparum IC50: 4.577 µg/mL
[1]
  T. b. rhodesiense IC50: 0.4 µg/mL
[2]
  T. cruzi IC50: 4.55 µg/mL
[3]
  L. donovani IC50: 0.45 µg/mL

## O=C(OB(c1cccnc1)c1cccc(Cl)c1)c1ncccc1O [Compound 70]
P. falciparum K1
  P. falciparum IC50: >5 µg/mL
[1]
  T. b. rhodesiense IC50: 38.3 µg/mL
[2]
  T. cruzi IC50: 28.2 µg/mL
[3]
  L. donovani IC50: 18.3 µg/mL

## N#Cc1cccc(B(Oc2cccc3cccnc23)c2cc(F)ccc2F)c1 [Compound 32, (3-Cyanophenyl)(2,5-difluorophenyl)borinic acid quinolin-8-yl ester]
P. falciparum K1
  IC50: 1.82 µg/mL (≈ 4.92 µM)
[1]
  IC50: 0.41 µg/mL (≈ 1.11 µM)
[2]
  IC50: 0.73 µg/mL (≈ 1.97 µM)
[3]
  IC50: 0.41 µg/mL (≈ 1.11 µM)

## Fc1cccc(B(Oc2cccc3cccnc23)c2ccc(Cl)cc2)c1F [Compound 42, (4-Chlorophenyl)(2,3-difluorophenyl)borinic acid quinolin-8-yl ester]
P. falciparum K1
  IC50: 1.83 µg/mL (≈ 4.82 µM)
[1]
  IC50: 0.47 µg/mL (≈ 1.24 µM)
[2]
  IC50: 1.04 µg/mL (≈ 2.75 µM)
[3]
  IC50: 0.43 µg/mL (≈ 1.13 µM)

## Cc1ccc2c(Cl)cc(Cl)c(OB(c3ccc(Cl)cc3)c3ccc(Cl)cc3)c2n1 [Compound 80]
P. falciparum K1
  P. falciparum IC50: 1.71 µg/mL
[1]
  T. b. rhodesiense IC50: 1.06 µg/mL
[2]
  T. cruzi IC50: 1.315 µg/mL
[3]
  L. donovani IC50: 0.12 µg/mL

## CN(C)Cc1ccc(B(Oc2cccc3cccnc23)c2ccc(C#N)cc2)cc1 [Compound 125]
P. falciparum K1
  P. falciparum IC50: 4.973 µg/mL
[1]
  T. b. rhodesiense IC50: 0.5 µg/mL
[2]
  T. cruzi IC50: 4.9 µg/mL
[3]
  L. donovani IC50: 0.38 µg/mL

## C=CB(Oc1cccc2cccnc12)c1cccnc1 [Compound 49, (3-Pyridyl)vinylborinic acid 8-hydroxyquinoline ester]
P. falciparum K1
  P. falciparum IC50: 1.58 µg/mL
[1]
  T. b. rhodesiense IC50: 0.2185 µg/mL
[2]
  T. cruzi IC50: 1.345 µg/mL
[3]
  L. donovani IC50: 0.45 µg/mL

## CS(=O)(=O)Nc1ccc(B(Oc2cccc3cccnc23)c2cccc(Cl)c2)cc1 [Compound 108]
P. falciparum K1
  P. falciparum IC50: 2.417 µg/mL
[1]
  T. b. rhodesiense IC50: 0.305 µg/mL
[2]
  T. cruzi IC50: 4.95 µg/mL
[3]
  L. donovani IC50: 0.59 µg/mL

## C=CB(Oc1cccc2cccnc12)c1ccc(F)c(Cl)c1 [Compound 116]
P. falciparum K1
  P. falciparum IC50: 3.95 µg/mL
[1]
  T. b. rhodesiense IC50: 0.5865 µg/mL
[2]
  T. cruzi IC50: 3.65 µg/mL
[3]
  L. donovani IC50: >30 µg/mL

## Fc1ccc(B(Oc2cccc3cccnc23)c2ccc(Cl)cc2)cc1 [Compound 15, (4-chlorophenyl)(4-fluorophenyl) borinic acid quinolin-8-yl ester]
P. falciparum K1
  IC50: 1.82 µg/mL (≈ 5.03 µM)
[1]
  IC50: 0.28 µg/mL (≈ 0.774 µM)
[2]
  IC50: 0.906 µg/mL (≈ 2.51 µM)
[3]
  IC50: 0.5 µg/mL (≈ 1.38 µM)

## COc1cc(B(Oc2cccc3cccnc23)c2cccc(F)c2)ccc1Cl [Compound 45, (4-Chloro-3-methoxyphenyl)(3-fluorophenyl)borinic acid quinolin-8-yl ester]
P. falciparum K1
  IC50: 1.84 µg/mL (≈ 4.7 µM)
[1]
  IC50: 0.48 µg/mL (≈ 1.23 µM)
[2]
  IC50: 1.15 µg/mL (≈ 2.92 µM)
[3]
  IC50: 0.5 µg/mL (≈ 1.28 µM)

## CN(C)Cc1ccc(B(Oc2cccc3cccnc23)c2cccc(C3=NC(C)(C)CO3)c2)cc1 [Compound 126]
P. falciparum K1
  P. falciparum IC50: 4.746 µg/mL
[1]
  T. b. rhodesiense IC50: 0.595 µg/mL
[2]
  T. cruzi IC50: 5.05 µg/mL
[3]
  L. donovani IC50: 0.45 µg/mL

## C=CB(Oc1c(Cl)cc(Cl)c2ccc(C)nc12)c1cccc(N(C)C)c1 [Compound 84]
P. falciparum K1
  P. falciparum IC50: 2.364 µg/mL
[1]
  T. b. rhodesiense IC50: 0.915 µg/mL
[2]
  T. cruzi IC50: 1.7 µg/mL
[3]
  L. donovani IC50: 0.16 µg/mL

## Fc1ccc(B(Oc2cccc3cccnc23)c2ccc(F)c(Cl)c2)cc1Cl [Compound 12, Bis(3-chloro-4-fluoro-phenyl)borinic acid quinolin-8-yl ester]
P. falciparum K1
  IC50: 1.5 µg/mL (≈ 3.62 µM)
[1]
  IC50: 0.52 µg/mL (≈ 1.26 µM)
[2]
  IC50: 5.6 µg/mL (≈ 13.5 µM)
[3]
  IC50: 0.68 µg/mL (≈ 1.64 µM)

## Cc1ccc(B(Oc2cccc3cccnc23)c2ccccc2)cc1Cl [Compound 10, (3-Chloro-4-methylphenyl)phenylborinic acid quinolin-8-yl ester]
P. falciparum K1
  IC50: 1.5 µg/mL (≈ 4.19 µM)
[1]
  IC50: 0.52 µg/mL (≈ 1.45 µM)
[2]
  IC50: 4.2 µg/mL (≈ 11.7 µM)
[3]
  IC50: 0.38 µg/mL (≈ 1.06 µM)

## N#Cc1cccc(B(Oc2cccc3cccnc23)c2cccc(F)c2)c1 [Compound 29, (3-Cyanophenyl)(3-fluorophenyl)borinic acid quinolin-8-yl ester]
P. falciparum K1
  IC50: 1.83 µg/mL (≈ 5.2 µM)
[1]
  IC50: 0.33 µg/mL (≈ 0.937 µM)
[2]
  IC50: 0.68 µg/mL (≈ 1.93 µM)
[3]
  IC50: 0.4 µg/mL (≈ 1.14 µM)

## N#Cc1cccc(B(Oc2cccc3cccnc23)c2ccccc2F)c1 [Compound 33, (3-Cyanophenyl)(2-fluorophenyl)borinic acid quinolin-8-yl ester]
P. falciparum K1
  IC50: 1.79 µg/mL (≈ 5.08 µM)
[1]
  IC50: 0.3 µg/mL (≈ 0.852 µM)
[2]
  IC50: 1.39 µg/mL (≈ 3.95 µM)
[3]
  IC50: 0.61 µg/mL (≈ 1.73 µM)

## CC1(C)COC(c2cccc(B(Oc3cccc4cccnc34)C3CC3)c2)=N1 [Compound 20, Cyclopropyl[3-(4,5-dihydro-4,4-dimethyloxazol-2yl)phenyl]borinic acid quinolin-8-yl ester]
P. falciparum K1
  IC50: 1.84 µg/mL (≈ 4.97 µM)
[1]
  IC50: 0.245 µg/mL (≈ 0.662 µM)
[2]
  IC50: 0.86 µg/mL (≈ 2.32 µM)
[3]
  IC50: 0.55 µg/mL (≈ 1.49 µM)

## N#Cc1ccc(B(Oc2cccc3cccnc23)c2ccc(F)cc2)cc1 [Compound 22, (4-Cyanophenyl)(4-fluorophenyl)borinic acid quinolin-8-yl ester]
P. falciparum K1
  IC50: 1.46 µg/mL (≈ 4.15 µM)
[1]
  IC50: 0.325 µg/mL (≈ 0.923 µM)
[2]
  IC50: 0.845 µg/mL (≈ 2.4 µM)
[3]
  IC50: 0.34 µg/mL (≈ 0.965 µM)
